This is an account of results in patent publication US20260049072A1, “HETEROCYCLIC COMPOUND FOR INDUCING DEGRADATION OF MUTANT KRAS PROTEIN” (Astellas Pharma Inc., priority 2022, published 2026).

Structures are written as SMILES. pIC50: −log10 of the molar value.

Usually pIC50 stands for −log10 of the IC50, conventionally taken in molar units. Broadly, the DC50 is the midpoint of the concentration-degradation curve.

The subject of experiment [1] is phosphorylation of ERK (Thr202/Tyr204). Nature of the experiment: ERK phosphorylation inhibitory activity, cell ELISA, PA-TU-8902. The format is cell-based. As to conditions: Homo sapiens, PaTu 8902; PA-TU-8902 cells, 24 hours, 100% = 300 nM trametinib; read-out: IC50 (ERK phosphorylation inhibition). The protocol: Test Example 2: Evaluation of ERK Phosphorylation Inhibitory Activity on Human KRAS G12V Mutant-Positive Pancreatic Cancer Line PA-TU-8902
The ERK phosphorylation inhibitory activities of subject compounds were evaluated by measuring phosphorylation of the 202th threonine (Thr202) and the 204th tyrosine (Tyr204) of ERK located downstream of the KRAS signal by cell ELISA.
PA-TU-8902 cells were seeded at 36 µL/well on a 384-well plate (from Greiner bio-one) to give 5.0×10^3 cells per well. The cell culture conditions were the same conditions as in Test Example 1-1.
The next day, the subject compounds (9 points having final concentrations in the range of 3 μM to 0.3 nM), trametinib (MEK inhibitor) of a final concentration of 300 nM as a positive control and DMSO, which was the solvent for the subject compounds, as a negative control were diluted 100-fold with a fresh medium and were each added at 4 μL per well, followed by culturing for 24 hours. After culturing, a 30% glyoxal solution (40% glyoxal [from Nacalai Tesque] was diluted with PBS) was quickly added at 30 μL per well, and the plate was allowed to stand for an hour and 30 minutes at room temperature to thus immobilize the cells. Then, the plate was centrifuged (110×g, seven seconds, hereinafter centrifugation was performed under the same conditions unless otherwise specified) to remove the supernatant, and 0.1% Triton X-100-containing PBS was added at 20 μL per well. After allowing the plate to stand for 10 minutes at room temperature, the supernatant was removed by centrifugation, and the same operation was further repeated. Next, 0.5% SDS-containing PBS was added at 20 μL per well. The plate was allowed to stand at room temperature for 30 minutes and was then centrifuged to remove the supernatant. Subsequently, a blocking solution (Intercept Blocking Buffer) was added at 20 μL per well, and the plate was allowed to stand for an hour at room temperature. The supernatant was removed by centrifugation, and an ERK (Thr202/Tyr204) phosphorylation antibody (Phospho-p44/42 MAPK (Erk 1/2) (Thr202/Tyr204) (D13.14.4E) XP Rabbit mAb; from Cell Signaling Technology) diluted 2,500-fold with the blocking solution was added at 15 μL per well as a primary antibody. The plate was allowed to stand at 4° C. overnight.
The next day, the plate was centrifuged to remove the supernatant, and 0.05% Tween-20-containing PBS (from Thermo Scientific; 20×PBS Tween-20 was diluted 20-fold with ion exchange water and used) was added at 50 μL per well. The supernatant was removed by centrifugation to thus wash each well. The washing was performed three times in total. After washing, an anti-rabbit IgG antibody diluted 1,000-fold with the blocking solution was added at 15 μL per well as a secondary antibody, and the plate was allowed to stand for an hour at room temperature. The plate was centrifuged to remove the supernatant, and each well was washed three times with 0.05% Tween-20-containing PBS in the same manner as after the primary antibody reaction. Centrifugation after the third washing was performed at 171×g for 17 seconds. After removing the supernatant, the plate was dried as it was with air at room temperature for three hours or more, and the 800-nm fluorescent signals were measured with Aerius.
With the signaling value at the time of addition of DMSO taken as 0% inhibition and with the signaling value at the time of addition of 300 nM trametinib taken as 100% inhibition, the 50% inhibition values (IC50) were calculated by Sigmoid-Emax model nonlinear regression analysis.

Experiment [2] has as its target T1, RAS G12D (Homo sapiens, UniProt P01116, G12D).
T1 construct: host or cells: AsPC-1 human pancreatic cancer cells
Nature of the experiment: RAS G12D degradation activity, Cell ELISA, AsPC-1. As to conditions: AsPC-1 cells, 24 hours; read-out: DC50 (RAS G12D 50% degradation value). The format is cell-based. As for the experimental part:
Test Example 1-2: Evaluation of RAS G12D Degradation Activity on Human KRAS G12D Mutant-Positive Pancreatic Cancer Line AsPC-1
The RAS G12D degradation activities of subject compounds were evaluated in the same manner as in Test Example 1-1 by measuring the expression levels of RAS G12D by a Cell ELISA method.
AsPC-1 cells (ATCC, CRL-1682) were seeded at 36 μL per well on a 384-well plate to give 2.0×10^4 cells per well. As for the cell culture conditions, RPMI-1640 medium (from Sigma-Aldrich) containing 10% fetal bovine serum was used in the presence of 5% CO2 at 37° C.
The next day, the subject compounds (10 points having final concentrations in the range of 3 μM to 0.1 nM) and DMSO, which was the solvent for the subject compounds, as a negative control were diluted 100-fold with a fresh medium and were each added at 4 μL per well, followed by culturing for 24 hours.
The next day, the procedures from the immobilization of the cells to before the addition of the blocking solution were performed by the same methods as in Test Example 1-1. A blocking solution (Intercept Blocking Buffer; from LI-COR Biosciences) was added at 20 μL per well. After allowing the plate to stand for 30 minutes at room temperature, the supernatant was removed by centrifugation. A solution obtained by diluting an anti-R-actin antibody (1,000-fold dilution) with the blocking solution was added to the wells of the positive control as a primary antibody, and a solution obtained by diluting an anti-Ras (G12D Mutant Specific) antibody (Ras (G12D Mutant Specific) (D8H7) Rabbit mAb; from Cell Signaling Technology; 1,000-fold dilution) and an anti-3-actin antibody (1,000-fold dilution) with the blocking solution was added to the other wells as primary antibodies, each at 15 μL per well. The plate was allowed to stand overnight at 4° C.
The next day, the supernatant was removed by centrifugation, and the plate was washed with PBS. The supernatant was removed by centrifugation, and a solution obtained by diluting an anti-rabbit IgG antibody and an anti-mouse IgG antibody 1,000-fold with the blocking solution was added at 15 μL per well as secondary antibodies. After allowing the plate to stand at room temperature for an hour, the supernatant was removed by centrifugation, and the plate was washed with PBS. After removing the supernatant, the plate was dried as it was with air at room temperature for two hours or more, and the 700-nm and 800-nm fluorescent signals were measured with Aerius.
With the RAS G12D signaling value at the time of addition of DMSO corrected with the signaling value of β-actin taken as 0% and with the RAS G12D signaling value under the conditions of staining with the anti-β-actin antibody alone taken as 100%, the RAS G12D degradation rates were calculated. The 50% degradation values (DC50) were calculated by Sigmoid-Emax model nonlinear regression analysis.
On the technique in general: ELISA stands for enzyme-linked immunosorbent assay.

T1 sequence (P01116 1-188 isoform P01116-2 G12D): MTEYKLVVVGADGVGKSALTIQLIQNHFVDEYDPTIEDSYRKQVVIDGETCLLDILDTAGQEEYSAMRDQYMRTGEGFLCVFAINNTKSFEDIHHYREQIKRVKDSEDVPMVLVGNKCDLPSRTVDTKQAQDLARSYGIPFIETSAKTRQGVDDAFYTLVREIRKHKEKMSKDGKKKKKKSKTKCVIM

`CO[C@@H](C)COc1nc(NC2CN(C(=O)O[C@H]3C[C@@H](N(C)C)C3)C2)c2cc(C3CC3)c(-c3c(C)c(F)cc4[nH]ncc34)c(OCc3ccc(-c4cn([C@H](C(=O)N5C[C@H](O)C[C@H]5C(=O)N[C@@H](CO)c5ccc(-n6cncn6)cc5)C(C)C)nn4)cc3)c2n1` (atropisomer, axis not shown; (M)) [Example 2, (1s,3R)-3-(dimethylamino)cyclobutyl 3-({(7M)-6-cyclopropyl-7-(6-fluoro-5-methyl-1H-indazol-4-yl)-8-{[4-(1-{(2S)-1-[(2S,4R)-4-hydroxy-2({(1R)-2-hydroxy-1-[4-(1H-1,2,4-triazol-1-yl)phenyl]ethyl}carbamoyl)pyrrolidin-1-yl]-3-methyl-1-oxobutan-2-yl}-1H-1,2,3-triazol-4-yl)phenyl]methoxy}-2-[(2S)-2-methoxypropoxy]quinazolin-4-yl}amino)azetidine-1-carboxylate]: in experiment [1], the pIC50 was 7.80. In addition, in experiment [2], the DC50 was found to be 5 nM.

For the compound `CO[C@@H](C)COc1cc(OC2CN(C(=O)N3CC(CN(C)C)C3)C2)c2cc(C3CC3)c(-c3c(C)c(F)cc4[nH]ncc34)c(OCc3ccc(-c4cn([C@H](C(=O)N5C[C@H](O)C[C@H]5C(=O)N[C@@H](CO)c5ccc(-n6cncn6)cc5)C(C)C)nn4)cc3)c2n1` (atropisomer, axis not shown; (M)) [Example 5, (4R)-1-[(2S)-2-(4-{4-[({(7M)-6-cyclopropyl-4-[(1-{3-[(dimethylamino)methyl]azetidine-1-carbonyl}azetidin-3-yl)oxy]-7-(6-fluoro-5-methyl-1H-indazol-4-yl)-2-[(2S)-2-methoxypropoxy]quinolin-8-yl}oxy)methyl]phenyl}-1H-1,2,3-triazol-1-yl)-3-methylbutanoyl]-4-hydroxy-N-{(1R)-2-hydroxy-1-[4-(1H-1,2,4-triazol-1-yl)phenyl]ethyl}-L-prolinamide], the pIC50 in experiment [1] is 8.10. The DC50 in experiment [2] came out at 6 nM.

Regarding `CO[C@@H](C)COc1cc(OC2CN(C(=O)N3CC(CN(C)C)C3)C2)c2cc(C3CC3)c(-c3c(C)c(F)cc4[nH]ncc34)c(OCc3ccc(-c4cn([C@H](C(=O)N5C[C@H](O)C[C@H]5C(=O)N[C@@H](CO)c5ccc(-c6ocnc6C)cc5)C(C)C)nn4)cc3)c2n1` (atropisomer, axis not shown; (M)) [Example 6, (4R)-1-[(2S)-2-(4-{4-[({(7M)-6-cyclopropyl-4-[(1-{3-[(dimethylamino)methyl]azetidine-1-carbonyl}azetidin-3-yl)oxy]-7-(6-fluoro-5-methyl-1H-indazol-4-yl)-2-[(2S)-2-methoxypropoxy]quinolin-8-yl}oxy)methyl]phenyl}-1H-1,2,3-triazol-1-yl)-3-methylbutanoyl]-4-hydroxy-N-{(1R)-2-hydroxy-1-[4-(4-methyl-1,3-oxazol-5-yl)phenyl]ethyl}-L-prolinamide], the pIC50 in experiment [1] was 8.15. For the same compound, the DC50 in experiment [2] was 5 nM.

For `CO[C@@H](C)COc1nc(NC2CN(C(=O)O[C@H]3C[C@@H](N(C)C)C3)C2)c2cc(C3CC3)c(-c3c(C)c(F)cc4[nH]ncc34)c(OCc3ccc(-c4cn([C@H](C(=O)N5C[C@H](O)C[C@H]5C(=O)N[C@@H](CO)c5ccc(-c6scnc6C)cc5)C(C)C)nn4)cc3)c2n1` (atropisomer, axis not shown; (M)) [Example 11, (1s,3R)-3-(dimethylamino)cyclobutyl 3-({(7M)-6-cyclopropyl-7-(6-fluoro-5-methyl-1H-indazol-4-yl)-8-{[4-(1-{(2S)-1-[(2S,4R)-4-hydroxy-2-({(1R)-2-hydroxy-1-[4-(4-methyl-1,3-thiazol-5-yl)phenyl]ethyl}carbamoyl)pyrrolidin-1-yl]-3-methyl-1-oxobutan-2-yl}-1H-1,2,3-triazol-4-yl)phenyl]methoxy}-2-[(2S)-2-methoxypropoxy]quinazolin-4-yl}amino)azetidine-1-carboxylate], the pIC50 in experiment [1] is 7.85. The DC50 in experiment [2] came to 4 nM.
